Laboratory results from US20130296278A1, “Diazeniumdiolate Derivatives” (Merck Sharp & Dohme Corp., priority 2011, published 2013).

Assay: Rate of NO release (UV absorbance decay at 248 nm in pH 7.4 buffer)
Assay type: physicochemical
Details: 0.25 mM diazeniumdiolate in 100 mM pH 7.4 phosphate buffer, 22° C., absorbance at 248 nm; t½=ln(2)/k
Experimental: Compounds of the invention were evaluated for the rate of NO release using the following protocol described below.
The method described by Maragos, C. M, et al. Med. Chem. 1991, 34, 3242-3247, was followed. A 100 mM solution of pH 7.4 buffer was prepared by dissolving 626 mg of NaH2PO4.H2O and 4155 mg of Na2HPO4.7H2O in 200 mL of water. The 0.01 M solution of the individual diazeniumdiolate was prepared by dissolving the sodium diazeniumdiolate in 0.01 M sodium hydroxide solution. All solutions used were kept at room temperature. The cuvette incubator was set at 22° C. 25 μL of the 0.01 M diazeniumdiolate solution was added to a cuvette, followed by dilution with 975 μL of pH 7.4 buffer to obtain a 0.25 (25 uL of 0.01 M diluted to 1000 ul will be 0.25 mM) mM solution. The cuvette was inserted into the UV spectrometer, and its absorbance at λ=248 nm was acquired every 3 seconds.
The general first-order rate equation is: […]
The method of Kezdy, F. J.; Jaz, J.; Bruylants, A. Bull. Soc. Chim. Belg. 1958, 67, 687-706, later elaborated by Schwartz, L. M.; Gelb, R. I. Anal. Chem. 1978, 50, 1592-1594, was used to analyze the data without measuring A∞. Two equations are obtained when the measurement At is made at t and At+Δt is made at t+Δt. Dividing these two equations and rearranging the resultant equation, we arrive at
At=At+Δte^−k!+A∞(1−e^kΔt)
Plotting At against At+Δt would yield a straight line with k=−ln(slope)/Δt, A∞=intercept/(1−slope). As a result, t½=ln(2)/k.

half-life at 0.25 mM [min] | Structure (SMILES)
1.45 | CCCN(/[N+]([O-])=N/[O-])C(C)(C)C.[Na+] [Example 1, Sodium 1-(N-tert-butyl-N-propylamino)diazen-1-ium-1,2-diolate]
3.17 | C=CCN(/[N+]([O-])=N/[O-])C(C)(C)C.[Na+] [Example 2, Sodium 1-(N-text-butyl-N-allylamino)diazen-1-ium-1,2-diolate]
3.42 | CC(C)(C)N(CCO)/[N+]([O-])=N/[O-].[Na+] [Example 3, Sodium 1-[N-tert-butyl-N-(2′-hydroxyethyl)amino]diazen-1-ium-1,2-diolate]
